1 compound from patent US10065926B2, “Use of substituted dihydrooxindolylsulfonamides, or the salts thereof, for increasing the stress tolerance of plants” (BAYER CROPSCIENCE AKTIENGESELLSCHAFT, priority 2013, dated 2018) can be followed below.

The test deals with T1, phosphatase ABI1 via the co-regulator RCAR11/PYR1 (Arabidopsis thaliana, UniProt O49686+P49597).
T1 sequence (P49597 1-434): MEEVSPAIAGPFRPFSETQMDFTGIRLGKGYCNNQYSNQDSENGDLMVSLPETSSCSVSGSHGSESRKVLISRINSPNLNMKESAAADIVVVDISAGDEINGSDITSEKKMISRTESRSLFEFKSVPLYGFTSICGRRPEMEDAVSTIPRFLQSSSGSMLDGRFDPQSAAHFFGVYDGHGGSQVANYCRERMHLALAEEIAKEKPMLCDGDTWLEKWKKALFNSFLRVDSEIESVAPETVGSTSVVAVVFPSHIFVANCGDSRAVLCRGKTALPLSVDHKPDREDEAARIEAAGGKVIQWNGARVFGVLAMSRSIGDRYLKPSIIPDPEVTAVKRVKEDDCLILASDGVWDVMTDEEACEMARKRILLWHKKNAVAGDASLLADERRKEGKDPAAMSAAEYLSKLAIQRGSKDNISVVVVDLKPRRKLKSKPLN
T1 sequence (O49686 1-191): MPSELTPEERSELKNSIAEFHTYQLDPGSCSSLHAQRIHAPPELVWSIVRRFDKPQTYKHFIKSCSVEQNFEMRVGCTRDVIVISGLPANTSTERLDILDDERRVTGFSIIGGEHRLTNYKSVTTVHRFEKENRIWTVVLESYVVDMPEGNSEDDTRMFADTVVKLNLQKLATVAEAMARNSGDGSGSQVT
Briefly: In vitro inhibition of phosphatase ABI1 via co-regulator RCAR11/PYR1, MUP dephosphorylation, fluorescence. It counts as biochemical. The note with it: at a concentration of 5 mM of the substance in a solution of DMSO and water; 35° C., 20 minutes. The source says:
Effects of the phytohormone abscisic acid (ABA) on the behavior of plants under abiotic stress and the mechanism of action of ABA are described in the literature (cf. Abrams et al., WO97/23441, Cutler, Park et al. Science, 2009, 324, 1068; Grill et al. Science, 2009, 324, 1064; Tanokura et al. Biophysics, 2011, 7, 123; Schroeder et al. Plant J. 2010, 61, 290). Therefore, it is possible with the aid of a suitable in vitro test system to derive a correlation between the action of ABA and the stress response of a plant under abiotic stress. In the event of water deficiency (drought stress), plants form the phytohormone abscisic acid (ABA). This binds, along with a co-regulator (Regulatory Component of ABA-Receptor=RCAR according to Grill et al. Science, 2009, 324, 1064 or PYR/PYL according to Cutler et al. Science, 2009, 324, 1068), to a phosphatase (e.g. ABI1, a type 2C protein phosphatase, also abbreviated to PP2C) and inhibits its activity. […] For the determination of activity, the dephosphorylation of 4-methylumbelliferyl phosphate (MUP) was measured at 460 nm. […]
Enzyme buffer mix and substrate mix were made up 5 minutes prior to the addition and warmed to a temperature of 35° C. […] Finally, a relative fluorescence measurement was made at 35° C. with a BMG Labtech “POLARstar Optima” microplate reader using a 340/10 nm excitation filter and a 460 nm emission filter. […]

`CC1=CC(=O)CC(C)(C)[C@@]1(O)/C=C/C(C)=C\C(=O)O` [abscisic acid]: the ABI1 inhibition result is reported as “++++ (≥90% inhibition)”.
